Values joined by “and” are separate entries in the source; they are usually repeats but may differ in a detail not shown here. Equal entries are not always repeated.
What was measured:
in vivo = assay type: in vivo, mice; settings: mice, IP 10 mg/kg, individual animals, listed as 7827_0016, 10 mg/kg
[1] = target: T1, RSK2(Kin.Dom.1-N-terminal) (Homo sapiens, UniProt P51812); assay: KINOMEscan; assay type: binding
T1 construct: RSK2(Kin.Dom.1-N-terminal); purchased Eurofins DiscoverX KINOMEscan (scanEDGE, 97 kinases)

320 GPCRs [2] = target: 320 GPCRs (Homo sapiens, UniProt Q9NS67); assay type: cell-based
320 GPCRs [3] = target: 320 GPCRs (Homo sapiens, UniProt Q96P69); assay type: cell-based
320 GPCRs [4] = target: 320 GPCRs (Homo sapiens, UniProt P48039); assay type: cell-based
320 GPCRs [5] = target: 320 GPCRs (Homo sapiens, UniProt Q8TDU9); assay type: cell-based
320 GPCRs [6] = target: 320 GPCRs (Homo sapiens, UniProt P32248); assay type: cell-based
320 GPCRs [7] = target: 320 GPCRs (Homo sapiens, UniProt P25090); assay type: cell-based
320 GPCRs [8] = target: 320 GPCRs (Homo sapiens, UniProt Q9NQS5); assay type: cell-based
320 GPCRs [9] = target: 320 GPCRs (Homo sapiens, UniProt P30411); assay type: cell-based
320 GPCRs [10] = target: 320 GPCRs (Homo sapiens, UniProt P47775); assay type: cell-based
320 GPCRs [11] = target: 320 GPCRs (Homo sapiens, UniProt O00155); assay type: cell-based
320 GPCRs [12] = target: 320 GPCRs (Homo sapiens, UniProt Q96P68); assay type: cell-based
320 GPCRs [13] = target: 320 GPCRs (Homo sapiens, UniProt Q13258); assay type: cell-based
320 GPCRs [14] = target: 320 GPCRs (Homo sapiens, UniProt O14804); assay type: cell-based
320 GPCRs [15] = target: 320 GPCRs (Homo sapiens, UniProt O00270); assay type: cell-based
320 GPCRs [16] = target: 320 GPCRs (Homo sapiens, UniProt Q8NFN8); assay type: cell-based
EP4R = target: T2, EP4R (Homo sapiens, UniProt P35408); assay: PRESTO-Tango β-arrestin2 recruitment assay; assay type: cell-based
T2 construct: Tango fusion cassette (only 'tango' is printed); expressed in transfected cells; host or cells: HTLA cells (tTA-dependent luciferase reporter, β-arrestin2-TEV fusion)

Sequence of 320 GPCRs (Homo sapiens, UniProt Q13258) (Q13258 whole entry): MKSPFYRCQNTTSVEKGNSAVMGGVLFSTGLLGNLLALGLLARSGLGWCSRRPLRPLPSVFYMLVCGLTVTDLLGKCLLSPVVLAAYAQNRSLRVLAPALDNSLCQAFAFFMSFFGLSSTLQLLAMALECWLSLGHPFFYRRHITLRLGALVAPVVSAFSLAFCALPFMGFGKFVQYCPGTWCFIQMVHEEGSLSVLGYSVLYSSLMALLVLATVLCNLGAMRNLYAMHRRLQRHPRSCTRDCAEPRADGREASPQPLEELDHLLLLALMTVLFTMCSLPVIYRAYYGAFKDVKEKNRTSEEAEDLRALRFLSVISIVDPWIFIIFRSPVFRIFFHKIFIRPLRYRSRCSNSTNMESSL
Sequence of 320 GPCRs (Homo sapiens, UniProt P30411) (P30411 whole entry): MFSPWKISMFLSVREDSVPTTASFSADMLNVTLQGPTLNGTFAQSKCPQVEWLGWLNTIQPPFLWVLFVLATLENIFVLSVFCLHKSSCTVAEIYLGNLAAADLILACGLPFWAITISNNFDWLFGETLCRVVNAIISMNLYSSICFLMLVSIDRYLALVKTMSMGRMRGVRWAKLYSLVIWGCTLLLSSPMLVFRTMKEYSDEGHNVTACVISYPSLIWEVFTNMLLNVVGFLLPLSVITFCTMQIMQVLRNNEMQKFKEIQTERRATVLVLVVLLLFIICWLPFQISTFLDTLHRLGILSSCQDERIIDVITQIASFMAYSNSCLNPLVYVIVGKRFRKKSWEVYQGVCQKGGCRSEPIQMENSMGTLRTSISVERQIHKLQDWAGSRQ
Sequence of 320 GPCRs (Homo sapiens, UniProt P25090) (P25090 whole entry): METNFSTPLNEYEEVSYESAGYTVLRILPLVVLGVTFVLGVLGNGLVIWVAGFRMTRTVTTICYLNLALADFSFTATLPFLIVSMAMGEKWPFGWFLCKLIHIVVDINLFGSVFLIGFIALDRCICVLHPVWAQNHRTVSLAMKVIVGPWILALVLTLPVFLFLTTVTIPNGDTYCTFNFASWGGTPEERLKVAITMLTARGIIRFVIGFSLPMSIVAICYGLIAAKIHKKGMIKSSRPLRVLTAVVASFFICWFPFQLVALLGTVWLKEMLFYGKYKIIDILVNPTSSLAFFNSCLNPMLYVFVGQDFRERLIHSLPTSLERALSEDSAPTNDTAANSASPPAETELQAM
Sequence of 320 GPCRs (Homo sapiens, UniProt O00155) (O00155 whole entry): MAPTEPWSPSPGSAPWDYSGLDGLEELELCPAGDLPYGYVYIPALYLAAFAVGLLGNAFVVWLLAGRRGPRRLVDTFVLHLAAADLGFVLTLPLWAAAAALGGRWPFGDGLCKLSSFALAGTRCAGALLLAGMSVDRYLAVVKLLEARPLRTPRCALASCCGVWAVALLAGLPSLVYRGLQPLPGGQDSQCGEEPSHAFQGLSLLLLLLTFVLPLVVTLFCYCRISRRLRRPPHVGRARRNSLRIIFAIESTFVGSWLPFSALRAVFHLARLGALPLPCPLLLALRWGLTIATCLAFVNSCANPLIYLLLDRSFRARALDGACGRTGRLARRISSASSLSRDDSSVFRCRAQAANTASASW
Sequence of 320 GPCRs (Homo sapiens, UniProt Q9NS67) (Q9NS67 whole entry): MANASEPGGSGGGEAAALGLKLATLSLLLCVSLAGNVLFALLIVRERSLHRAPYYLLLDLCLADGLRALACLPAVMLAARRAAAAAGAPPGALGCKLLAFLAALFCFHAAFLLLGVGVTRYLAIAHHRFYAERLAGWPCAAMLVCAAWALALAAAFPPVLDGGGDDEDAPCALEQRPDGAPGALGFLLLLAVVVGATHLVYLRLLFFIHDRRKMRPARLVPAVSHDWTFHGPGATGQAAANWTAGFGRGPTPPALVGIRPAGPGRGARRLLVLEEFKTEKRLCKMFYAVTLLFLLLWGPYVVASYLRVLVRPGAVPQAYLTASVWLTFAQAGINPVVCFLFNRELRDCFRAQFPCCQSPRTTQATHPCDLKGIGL
T1 sequence (P51812 1-397 limits assumed): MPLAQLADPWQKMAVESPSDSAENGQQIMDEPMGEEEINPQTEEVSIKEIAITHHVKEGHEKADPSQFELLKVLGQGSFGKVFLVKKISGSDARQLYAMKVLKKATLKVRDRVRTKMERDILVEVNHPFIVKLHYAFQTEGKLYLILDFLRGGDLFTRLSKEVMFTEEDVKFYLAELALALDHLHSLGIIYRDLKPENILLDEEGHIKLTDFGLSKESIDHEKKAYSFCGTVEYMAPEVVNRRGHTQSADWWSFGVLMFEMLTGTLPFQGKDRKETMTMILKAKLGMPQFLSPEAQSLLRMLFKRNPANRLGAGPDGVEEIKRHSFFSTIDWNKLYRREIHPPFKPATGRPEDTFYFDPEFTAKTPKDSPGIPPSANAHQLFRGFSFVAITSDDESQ
Sequence of 320 GPCRs (Homo sapiens, UniProt Q8TDU9) (Q8TDU9 whole entry): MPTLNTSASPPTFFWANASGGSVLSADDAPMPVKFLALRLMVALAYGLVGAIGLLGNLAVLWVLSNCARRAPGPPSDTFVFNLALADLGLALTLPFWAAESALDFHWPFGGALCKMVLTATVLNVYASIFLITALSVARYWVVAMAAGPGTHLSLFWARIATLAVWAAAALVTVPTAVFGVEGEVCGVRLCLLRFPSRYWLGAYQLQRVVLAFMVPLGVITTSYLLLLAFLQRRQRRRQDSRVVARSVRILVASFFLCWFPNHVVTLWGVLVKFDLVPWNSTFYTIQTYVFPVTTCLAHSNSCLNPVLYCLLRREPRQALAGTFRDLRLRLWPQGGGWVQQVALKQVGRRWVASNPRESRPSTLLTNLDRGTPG
Sequence of 320 GPCRs (Homo sapiens, UniProt O14804) (O14804 whole entry): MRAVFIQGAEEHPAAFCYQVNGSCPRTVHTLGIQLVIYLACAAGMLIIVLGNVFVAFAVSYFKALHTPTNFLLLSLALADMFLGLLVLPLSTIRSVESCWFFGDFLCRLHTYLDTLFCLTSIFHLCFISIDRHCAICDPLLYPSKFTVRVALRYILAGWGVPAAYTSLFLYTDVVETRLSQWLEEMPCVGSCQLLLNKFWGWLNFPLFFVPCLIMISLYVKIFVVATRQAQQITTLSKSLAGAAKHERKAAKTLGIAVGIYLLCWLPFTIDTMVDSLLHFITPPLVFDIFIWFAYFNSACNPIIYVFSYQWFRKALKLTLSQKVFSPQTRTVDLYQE
Sequence of 320 GPCRs (Homo sapiens, UniProt Q96P69) (Q96P69 whole entry): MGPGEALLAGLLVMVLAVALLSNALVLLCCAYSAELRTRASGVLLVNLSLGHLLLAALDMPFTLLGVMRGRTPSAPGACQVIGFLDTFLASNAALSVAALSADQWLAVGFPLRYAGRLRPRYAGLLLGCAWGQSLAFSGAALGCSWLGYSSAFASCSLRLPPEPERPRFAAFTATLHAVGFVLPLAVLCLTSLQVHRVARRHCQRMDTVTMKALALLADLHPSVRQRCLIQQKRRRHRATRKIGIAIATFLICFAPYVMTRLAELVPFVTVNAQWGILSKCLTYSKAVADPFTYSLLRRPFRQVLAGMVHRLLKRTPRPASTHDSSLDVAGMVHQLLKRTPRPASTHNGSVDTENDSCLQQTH
Sequence of 320 GPCRs (Homo sapiens, UniProt Q9NQS5) (Q9NQS5 whole entry): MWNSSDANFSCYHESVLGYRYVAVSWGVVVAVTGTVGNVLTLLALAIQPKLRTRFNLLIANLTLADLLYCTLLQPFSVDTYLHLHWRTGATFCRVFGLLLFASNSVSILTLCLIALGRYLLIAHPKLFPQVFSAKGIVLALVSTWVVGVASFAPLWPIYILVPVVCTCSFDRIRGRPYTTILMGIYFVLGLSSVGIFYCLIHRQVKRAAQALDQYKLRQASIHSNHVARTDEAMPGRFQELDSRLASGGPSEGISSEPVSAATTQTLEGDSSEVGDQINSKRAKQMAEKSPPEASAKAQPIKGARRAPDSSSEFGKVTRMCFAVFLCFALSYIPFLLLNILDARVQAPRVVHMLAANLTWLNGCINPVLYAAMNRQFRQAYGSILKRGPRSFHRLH
Sequence of 320 GPCRs (Homo sapiens, UniProt Q8NFN8) (Q8NFN8 whole entry): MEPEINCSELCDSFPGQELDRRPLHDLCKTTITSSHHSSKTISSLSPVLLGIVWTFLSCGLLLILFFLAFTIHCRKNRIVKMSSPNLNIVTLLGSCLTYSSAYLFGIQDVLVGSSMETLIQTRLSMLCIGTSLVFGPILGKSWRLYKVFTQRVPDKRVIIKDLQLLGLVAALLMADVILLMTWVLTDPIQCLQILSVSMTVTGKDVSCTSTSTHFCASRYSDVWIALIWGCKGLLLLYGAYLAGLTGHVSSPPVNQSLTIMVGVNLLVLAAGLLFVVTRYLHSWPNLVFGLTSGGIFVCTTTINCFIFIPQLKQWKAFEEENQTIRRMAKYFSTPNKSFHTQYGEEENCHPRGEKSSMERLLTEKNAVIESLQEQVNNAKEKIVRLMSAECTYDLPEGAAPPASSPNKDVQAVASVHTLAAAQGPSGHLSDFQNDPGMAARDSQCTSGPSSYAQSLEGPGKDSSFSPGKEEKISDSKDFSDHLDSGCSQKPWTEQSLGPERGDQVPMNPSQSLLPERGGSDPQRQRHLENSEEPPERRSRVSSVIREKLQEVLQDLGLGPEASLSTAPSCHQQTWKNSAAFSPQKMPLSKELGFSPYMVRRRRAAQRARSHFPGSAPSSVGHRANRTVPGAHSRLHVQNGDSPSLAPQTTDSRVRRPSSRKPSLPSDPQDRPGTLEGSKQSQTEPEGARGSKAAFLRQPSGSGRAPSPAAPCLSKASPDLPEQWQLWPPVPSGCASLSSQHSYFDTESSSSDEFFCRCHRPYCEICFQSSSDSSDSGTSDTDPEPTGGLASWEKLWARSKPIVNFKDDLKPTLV
Sequence of 320 GPCRs (Homo sapiens, UniProt O00270) (O00270 whole entry): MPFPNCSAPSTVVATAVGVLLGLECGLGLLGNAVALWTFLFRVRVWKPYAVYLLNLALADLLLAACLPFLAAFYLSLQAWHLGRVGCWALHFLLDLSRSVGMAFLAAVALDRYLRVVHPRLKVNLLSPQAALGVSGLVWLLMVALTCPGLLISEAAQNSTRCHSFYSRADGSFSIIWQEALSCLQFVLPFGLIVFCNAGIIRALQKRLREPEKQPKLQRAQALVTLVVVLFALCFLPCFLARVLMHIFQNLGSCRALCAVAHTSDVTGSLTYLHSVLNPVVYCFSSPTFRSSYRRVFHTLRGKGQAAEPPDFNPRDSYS

For `O=C(O)C1CCC2(CC1)CC(Nc1ncnc3[nH]c4c(F)cccc4c13)C2` (centres unmarked) [Compound 74, OC(=O)C1CCC2(CC(C2)NC=3N=CN=C4NC=5C(F)=CC=CC5C34)CC1], the “CSF concentration, Final” value (in vivo; 5 min) was 0 ng/mL and 47.1 ng/mL, the “CSF concentration, Final” value (in vivo; 15 min) was 76.0 ng/mL and 109 ng/mL and 26.8 ng/mL and the “CSF concentration, Final” value (in vivo; 30 min) was 63.1 ng/mL and 31.1 ng/mL and 148 ng/mL. For the same compound, the “CSF concentration, Final” value (in vivo; 60 min) was 333 ng/mL and 43.7 ng/mL and 98.0 ng/mL, the “CSF concentration, Final” value (in vivo; 120 min) was 23.6 ng/mL and 138.9 ng/mL and 195.0 ng/mL and the “CSF concentration, Final” value (in vivo; 240 min) was 8.55 ng/mL and 16.8 ng/mL and 52.8 ng/mL. For the same compound, the “CSF concentration, Final” value (in vivo; 360 min) was 72.8 ng/mL and 71.4 ng/mL, the “CSF concentration, Final” value (in vivo; 480 min) was 16.7 ng/mL and 5.28 ng/mL and 0 ng/mL and the “CSF concentration, Final” value (in vivo; 1440 min) was 32.4 ng/mL and 0 ng/mL. The “Brain concentration, Final” value (in vivo; 5 min) was 63.0 ng/g and 61.5 ng/g, the “Brain concentration, Final” value (in vivo; 15 min) was 140 ng/g and 112 ng/g and the “Brain concentration, Final” value (in vivo; 30 min) was 168 ng/g and 291 ng/g. For the same compound, the “Brain concentration, Final” value (in vivo; 60 min) was 124 ng/g and 174 ng/g, the “Brain concentration, Final” value (in vivo; 120 min) was 40.2 ng/g and 117 ng/g and 89.0 ng/g and the “Brain concentration, Final” value (in vivo; 240 min) was 26.0 ng/g and 26.4 ng/g. The “Brain concentration, Final” value (in vivo; 360 min) was 33.7 ng/g and 18.5 ng/g, the “Brain concentration, Final” value (in vivo; 480 min) was 9.82 ng/g and 13.1 ng/g and 57.1 ng/g and the “Plasma concentration, Final” value (in vivo; 5 min) was 937 ng/mL and 1166 ng/mL. For the same compound, the “Plasma concentration, Final” value (in vivo; 15 min) was 5726 ng/mL and 4307 ng/mL, the “Plasma concentration, Final” value (in vivo; 30 min) was 6345 ng/mL and 8215 ng/mL and the “Plasma concentration, Final” value (in vivo; 60 min) was 5152 ng/mL and 8232 ng/mL. For the same compound, the “Plasma concentration, Final” value (in vivo; 120 min) was 1532 ng/mL and 4227 ng/mL and 3400 ng/mL, the “Plasma concentration, Final” value (in vivo; 240 min) was 751 ng/mL and 1518 ng/mL and 1407 ng/mL and the “Plasma concentration, Final” value (in vivo; 360 min) was 1143 ng/mL and 957 ng/mL. For the same compound, the “Plasma concentration, Final” value (in vivo; 480 min) was 516 ng/mL and 763 ng/mL and 2398 ng/mL, the “Plasma concentration, Final” value (in vivo; 1440 min) was 250 ng/mL and 0 ng/mL and the remaining binding at 10 µM ([1]; 10000 nM, read-out: Percent Control) was 0.25%. For the same compound, the “Signal (qPCR)” value ([1]; RSK2, [Compound] 0.0001 nM) was 4.94e-6 and 4.75e-6, the “Signal (qPCR)” value ([1]; RSK2, [Compound] 0.01 nM) was 3.91e-6 and 4.73e-6 and the “Signal (qPCR)” value ([1]; RSK2, [Compound] 0.169 nM) was 4.25e-6 and 3.92e-6. For the same compound, the “Signal (qPCR)” value ([1]; RSK2, [Compound] 0.508 nM) was 4.17e-6 and 4.75e-6, the “Signal (qPCR)” value ([1]; RSK2, [Compound] 1.52 nM) was 4.57e-6 and 4.32e-6 and the “Signal (qPCR)” value ([1]; RSK2, [Compound] 4.57 nM) was 4.65e-6 and 4.1e-6. The “Signal (qPCR)” value ([1]; RSK2, [Compound] 13.7 nM) was 3.9e-6 and 3.53e-6, the “Signal (qPCR)” value ([1]; RSK2, [Compound] 41.2 nM) was 3.36e-6 and 3.55e-6 and the “Signal (qPCR)” value ([1]; RSK2, [Compound] 123 nM) was 3.09e-6 and 2.73e-6. The “Signal (qPCR)” value ([1]; RSK2, [Compound] 370 nM) was 2.17e-6 and 2e-6, the “Signal (qPCR)” value ([1]; RSK2, [Compound] 3330 nM) was 5.93e-7 and 5.31e-7 and the “Signal (qPCR)” value ([1]; RSK2, [Compound] 10000 nM) was 2.67e-7 and 3.25e-7. For the same compound, the “RLU (Fold over Basal)” value (320 GPCRs [2]) was 0.4 Fold over Basal and 0.7 Fold over Basal and 0.8 Fold over Basal and 0.6 Fold over Basal, the “RLU (Fold over Basal)” value (320 GPCRs [3]) was 1 Fold over Basal and 0.5 Fold over Basal and 0.9 Fold over Basal and the “RLU (Fold over Basal)” value (320 GPCRs [4]) was 0.9 Fold over Basal and 0.8 Fold over Basal. The “RLU (Fold over Basal)” value (320 GPCRs [5]) was 1.1 Fold over Basal and 0.6 Fold over Basal and 0.7 Fold over Basal, the “RLU (Fold over Basal)” value (320 GPCRs [6]) was 1 Fold over Basal and 0.9 Fold over Basal and the “RLU (Fold over Basal)” value (320 GPCRs [7]) was 1.2 Fold over Basal and 1.5 Fold over Basal and 1.6 Fold over Basal and 0.9 Fold over Basal. The “RLU (Fold over Basal)” value (320 GPCRs [8]) was 1 Fold over Basal and 0.8 Fold over Basal and 1.1 Fold over Basal, the “RLU (Fold over Basal)” value (320 GPCRs [9]) was 0.4 Fold over Basal and 0.5 Fold over Basal and 0.6 Fold over Basal and the “RLU (Fold over Basal)” value (320 GPCRs [10]) was 0.6 Fold over Basal and 1 Fold over Basal. The “RLU (Fold over Basal)” value (320 GPCRs [11]) was 1.1 Fold over Basal and 1 Fold over Basal and 0.7 Fold over Basal and 0.6 Fold over Basal, the “RLU (Fold over Basal)” value (320 GPCRs [12]) was 0.3 Fold over Basal and the “RLU (Fold over Basal)” value (320 GPCRs [13]) was 0.7 Fold over Basal and 1 Fold over Basal and 1.1 Fold over Basal. For the same compound, the “RLU (Fold over Basal)” value (320 GPCRs [14]) was 1.3 Fold over Basal and 0.9 Fold over Basal and 1.4 Fold over Basal and 0.8 Fold over Basal, the “RLU (Fold over Basal)” value (320 GPCRs [15]) was 1.8 Fold over Basal and 1.3 Fold over Basal and the “RLU (Fold over Basal)” value (320 GPCRs [16]) was 1.2 Fold over Basal and 1 Fold over Basal and 0.6 Fold over Basal. It also gave an IC50 (EP4R; PRESTO-Tango IC50 (nM)) of 302 nM and a Ki (EP4R; calculated using the Cheng Prusoff equation, read-out: PRESTO-Tango Ki*) of 60.4 nM.

Reference: paper PMC10700596 (Nature Communications, 2023)
